Experimental findings from patent US10494380B2, “Nitrogen-containing tricyclic derivatives having HIV replication inhibitory activity” (priority 2015, dated 2019) are described below.

The structures appear in SMILES notation. Read-outs that look alike come from different tables or passages of the source.

Experiment [1] relates to T125A mutant virus (HIV-1 NL-432 recombinant molecular clone, IN gene). The experiment in a line: HIV replication inhibition assay against integrase 124/125 mutant virus (Test Example 2). The experiment is classed as cell-based. Put shortly: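 EC50 is the compound concentration blocking half of virus-induced cell death, measured by MTT (OD 560 nm, 690 nm reference) after 4 days at 37 °C. Integrase 124/125 mutant NL-432 virus from transfected 293T cells (60 pfu) was added to 2.5×10^4 MT-4 cells with compound.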

Another experiment concerns HIV. The class given is cell-based. The following applies: EC50 in the presence of human serum (25%) versus without human serum, MT-4 cells. As for the experimental part:
To confirm the influence of human serum on anti-HIV activity as necessary, human serum was added and determined EC50 in this condition. Human serum (100 μL/well) was dispensed into each anti-HIV active substance at a designated concentration dispensed 50 μL each in advance into a 96-well microtiter plate, and the plate was incubate at room temperature for 1 hour. To the serum-free plate, only culture medium (100 μL/well) was dispensed into 96-well microtiter plate. MT-4 cells (3×10^4 cells/well) was infected with 3 μL/well of HIV solution diluted to an appropriate concentration (600 pfu/50 μL) by the required number of wells and incubated at 37° C. for 1 hour. The infected cells were centrifuged at 1200 rpm for 5 minutes, the supernatant was discarded, and the infected cells were dispersed into culture medium for the required number of wells at 50 μL/well. Infected cell suspension was dispensed into a 96-well microtiter plate of which anti-HIV active substance and human serum prepared in advance. The cell mixture was mixed with a plate mixer and cultured in a CO2 incubator for 4 days. The EC50 in the presence of human serum was calculated in the same manner as in Test Example 1 and the ratio of EC50 in the presence of human serum and EC50 in the absence of human serum was calculated as the potency shift value. […]

[2] abbreviates: Human immunodeficiency virus 1, MT4, read-out: EC50 against T125A mutant virus, T125A mutant virus (HIV-1 NL-432 IN gene), MT-4 cells, MTT.
Setting [3] is: read-out: EC50 against T125A mutant virus, T125A mutant virus (HIV-1 NL-432 IN gene), MT-4 cells, MTT.

By EC50 is commonly meant the concentration needed to bring the measured effect to its halfway point. Take `Cc1c([C@H](OC(C)(C)C)C(=O)O)c(-c2ccc(Cl)cc2)c2cc(C)n3c2c1N(c1ncc(N2CCCC2)cn1)CC3` [Compound I-252]: in experiment [1] (setting [2]), the half-maximal effective concentration (EC50) is 8.5 nM. In addition, the Potency shift value in the experiment with HIV is listed as 23.
Take `Cc1c([C@H](OC(C)(C)C)C(=O)O)c(-c2ccc(Cl)cc2)c2cc(C)n3c2c1N(C)C1COCC13` (stereo partly drawn) [Compound I-138]: the EC50 in experiment [1] (setting [3]) came to 1.5 nM. Besides, in the experiment with HIV, the Potency shift value is on record as 5.8.
`Cc1ccc(-c2c([C@H](OC(C)(C)C)C(=O)O)c(C)c3c4c2cc(C)n4CCN3c2ncc(Oc3ccc4ccccc4n3)cn2)cc1` [Compound I-338]: the EC50 in experiment [1] (setting [2]) was 21 nM. Moreover, the Potency shift value in the experiment with HIV was 18.
`COc1cccc(N2CCn3c(C)cc4c(-c5ccc(Cl)cc5)c([C@H](OC(C)(C)C)C(=O)O)c(C)c2c43)n1` [Compound I-194]: in experiment [1] (setting [2]), the EC50 is 12 nM. Also, in the experiment on HIV, the Potency shift value is recorded as 13.
In the case of `COc1cncc(N2CCn3c(C)cc4c(-c5ccc(C)cc5)c([C@H](OC(C)(C)C)C(=O)O)c(C)c2c43)n1` [Compound I-274], the concentration giving a half-maximal response (EC50) in experiment [1] (setting [2]) came to 14 nM. The Potency shift value with HIV is on record as 16.
The corresponding values for `Cc1ccc(-c2c([C@H](OC(C)(C)C)C(=O)O)c(C)c3c4c2cc(C)n4CCN3c2ncc(Oc3nc4ccccc4o3)cn2)cc1` [Compound I-345] are 38 nM and 41.
For `Cc1ccc(-c2c([C@H](OC(C)(C)C)C(=O)O)c(Cl)c3c4c2cc(C)n4CCN3c2ccc(C)nn2)cc1` [Compound I-354], the EC50 in experiment [1] (setting [2]) was found to be 5.3 nM. Moreover, the Potency shift value in the experiment on HIV worked out at 27.
`Cc1c([C@H](OC(C)(C)C)C(=O)O)c(-c2ccc(Cl)cc2)c2cc(C)n3c2c1N(C)CC3c1ccccc1` (stereo partly drawn) [Compound I-331]: the EC50 in experiment [1] (setting [3]) came to 92 nM. Also, the Potency shift value in the experiment on HIV is 7.
Consider `Cc1ccc(-c2c([C@H](OC(C)(C)C)C(=O)O)c(C)c3c4c2cc(C)n4CCN3CCN2CCCC2)cc1` [Compound I-130], for which, in experiment [1] (setting [2]), the EC50 was 27 nM. Moreover, the Potency shift value with HIV is 2.7.
Regarding `Cc1ccc(-c2c([C@H](OC(C)(C)C)C(=O)O)c(C)c3c4c2cc(C)n4CCN3c2ncc(CCN(C)C)cn2)cc1` [Compound I-337], the EC50 in experiment [1] (setting [2]) is 28 nM. The Potency shift value in the experiment on HIV came out at 3.6.
Consider `Cc1c([C@H](OC(C)(C)C)C(=O)O)c(-c2ccc(Cl)cc2)c2cc(C)n3c2c1OCCC3` [Compound I-188], for which, in experiment [1] (setting [2]), the 50% effective concentration (EC50) stood at 14 nM. Besides, the Potency shift value with HIV is reported as 11.
The corresponding values for `COc1cnc(N2CCn3c(C)cc4c(-c5ccc(C)cc5)c([C@H](OC(C)(C)C)C(=O)O)c(C)c2c43)cn1` [Compound I-275] are 13 nM and 18.
Consider `Cc1ccc(-c2c([C@H](OC(C)(C)C)C(=O)O)c(C)c3c4c2cc(C)n4CCN3c2ncc(CN3CCCC3)cn2)cc1` [Compound I-347], for which the EC50 in experiment [1] (setting [2]) came out at 10 nM. Also, the Potency shift value in the experiment on HIV worked out at 7.4.
The corresponding values for `Cc1c([C@H](OC(C)(C)C)C(=O)O)c(-c2ccc(Cl)cc2)c2cc(C)n3c2c1N(c1ncc(OCCCO)cn1)CC3` [Compound I-256] are 5.6 nM and 10.
The corresponding values for `Cc1c([C@H](OC(C)(C)C)C(=O)O)c(-c2ccc(Cl)cc2)c2cc(C)n3c2c1N(c1nc2ccccc2s1)CC3` [Compound I-240] are 51 nM and 12.
The corresponding values for `Cc1c([C@H](OC(C)(C)C)C(=O)O)c(C2=CCC(C)(C)CC2)c2cc(C)n3c2c1N(CCN(C)C)CC3` [Compound I-320] are 16 nM and 2.6.
Consider `Cc1ccc(-c2c([C@H](OC(C)(C)C)C(=O)O)c(C)c3c4c2cc(C)n4CCN3c2ncc(CCN3CCN(C)CC3)cn2)cc1` [Compound I-351], for which the 50% effective concentration (EC50) in experiment [1] (setting [2]) was found to be 17 nM. Also, the Potency shift value with HIV came to 5.5.
Take `Cc1ccc(-c2c([C@H](OC(C)(C)C)C(=O)O)c(C)c3c4c2cc(C)n4CCN3CC2COC2)cc1` [Compound I-211]: the EC50 in experiment [1] (T125A mutant virus (HIV-1 NL-432 IN gene), MT-4 cells, MTT, read-out: EC50 against T125A mutant virus) was found to be 20 nM. Further, the Potency shift value in the experiment on HIV was determined as 7.5.
